Reference: patent US20240182867A1, “CHEMICAL REPROGRAMMING OF HUMAN SOMATIC CELLS INTO PLURIPOTENT CELLS” (Peking University, priority 2021, published 2024)

Tests used:
SALL4 = test: Withdrawing individual chemicals from stage II: SALL4 activation; assay type: cell-based, human
Protocol: (§1) In several experiments, to testing the reprogramming efficiency after regulate each small molecules, the indicated small molecules were removed from the cocktails. […]
Total RNA was isolated using Direct-zol RNA MiniPrep Kit (Zymo Research, R2053). cDNA was synthesized from 0.5-1 μg of total RNA using TransScript First-Strand cDNA Synthesis SuperMix (TransGen Biotech, AT311-03). qPCR was performed by using KAPA SYBR FAST qPCR Kit Master Mix (KAPA Biosystems, KM4101) on a CFX ConnectTM Real-Time System (Bio-Rad). The data were analyzed using the delta-delta Ct method. […]

human somatic cells = test: hCiPSC colonies at the end of reprogramming after withdrawing individual chemicals from stage I or II; assay type: cell-based; conditions: factor removed
Protocol: Cells were maintained at 37° C. with 21% 02 and 5% CO2. The induction medium was changed every 3-4 days. HEFs were seeded at a density of 1-1.5×10^4 cells per well of a 12-well plate in 15%. FBS-DMEM medium. Change the medium into stage I induction medium on the next day. For stage I induction, single layer epithelial-like cells would emerge at day 4-6 and approach 80%-100% confluence at day 8-12, then change the medium into stage II induction medium. For stage II induction, multi-layered colonies appeared after 8-12 days treatment and these cell colonies would continually grow larger. After totally 16-20 days' stage II treatment, change the medium into stage III condition. For stage III induction, 8-12 days treatment of stage III medium is required and then change the medium into stage IV condition. For stage IV induction, VPA (500 μM) was included in the first 4 days. Primary hCiPSC colonies would emerge after 6-8 days' treatment. At the end of stage IV, immunofluorescent staining of co-expression of OCT4 and NANOG was used to confirm the generation of primary hCiPSC colonies. Primary hCiPSC colony number was calculated as the number of the compact OCT4 positive colonies. Reprogramming efficiency was calculated as the number of primary hCiPSC colonies divided by the number of input HEFs.
In several experiments, to testing the reprogramming efficiency after removing each small molecules, the indicated small molecules were removed from the cocktails. The concentration of the small molecules used to regulate the same pathway or targets were indicated as follow: GSK3 inhibitors (CHIR99021: 3-15 μM; TD114-2: 0.5-2 μM; CHIR98014: 1-3 μM; GSK3βi XV: 0.05-0.2 μM); RA pathway agonists (TTNPB: 0.5-10 μM; Ch55: 1-5 μM; AM580: 0.1-1 μM); Rock inhibitors (TZV: 2-10 μM; Y27632: 2-15 μM; Fasudil: 2-10 μM; HA1100: 2-10 μM); TGFβ inhibitors (A8301: 0.1-5 μM; SB431542: 2-50 μM; LY364947: 0.5 μM; LY21: 0.5 μM; 616452: 10 μM).
In several experiments, to testing the reprogramming efficiency after regulate each small molecules, the indicated small molecules were removed from the cocktails. The concentration of the small molecules used to targeting the same pathway or targets were indicated as follow: GSK3 inhibitors (CHIR99021: 3-15 μM; TD114-2: 0.5-2 μM; CHIR98014: 1-3 μM; GSK3βi XV: 0.05-0.2 μM); TGFβ inhibitors (A8301: 0.2-5 μM; SB431542: 2-50 μM; 616452: 10 μM); RA pathway agonists (TTNPB: 0.2-10 μM; Ch55: 1-10 μM; AM580: 0.1-1 μM); Rock inhibitors (Y27632: 2-15 μM; Fasudil: 2-10 μM; HA1100: 2-10 μM; TZV: 2-10 μM); Smoothened agonists (SAG: 0.2-2 μM; Purmorphamine: 0.5-2 μM; Hg-Ag1.5: 0.5-1 μM; Human shh: 20-200 μM); histone demethylation inhibitors (Tranylcypromine: 2-50 μM; GSK2879: 0.02-2 μM; LSD-C76: 0.2-5 μM; S2101: 0.5-5 μM; LSD-2D: 0.2-5 μM; RN-1: 0.2-5 μM); DNMT inhibitors (5-azaC: 2-15 μM; Decitabine: 0.5-10 μM; RG108: 0.5-10 μM); JNK inhibitors (JNK-in-8: 0.2-2 μM; JNK-in-5: 0.5-1 μM; JNK-in-7: 0.2-2 μM; JNK-in-12: 0.2-0.5 μM); CBP/p300 bromodomain inhibitor (SGC-CBP30: 0.5-2 μM; I-CBP112: 0.5-5 μM; GNE272: 0.5-5μM; GNE409:0.5-5μM); Menin-MLL interaction inhibitor (VTP50469: 0.5-2μM; MI3454: 0.5-2μM; WDR5-IN-4: 0.5-2μM).

[1] = tested on: genes that activated at stage II; test: Withdrawing individual chemicals from stage II: plasticity signatures and chromatin accessibility; assay type: cell-based, human
Protocol: as §1
Approximately 5×10^4 cells of each sample were collected and washed once with cold PBS and re-suspended in 50 μL Lysis buffer (10 mM Tris-HCl PH7.4, 10 mM NaCl, 3 mM MgCl2, 0.5% NP-40). […] All ATAC libraries were sequenced on an Illumina Novaseq 6000 platform and 150 bp paired-end reads were generated. […]
Quality control was performed using FastQC to all samples. The raw ATAC-seq reads were trimmed using Trimmomatic with parameter ‘[…]:NexteraPE-PE.fa:2:30:7:1:true LEADING:3 TRAILING:3 SLIDINGWINDOW:4:15 MINLEN:36’ to remove detected adapters. Then the clean reads were mapped to human reference genome hg19 using Bowtie2 with parameter ‘—very-sensitive’. […] Duplicated reads were removed using MarkDuplicates function of Picard tools. Low quality mapped reads and reads mapped to mitochondrial were filtered using Samtools. […]
Overlapped peaks in different samples were merged and defined sample specific peak sets using R package ChIPpeakAnno. […] The ATAC signal strength around peak region or gene promoter region was quantified using Deeptools.

[2] = tested on: cellular retinoic acid binding protein (CRABP); conditions: cited from earlier work
other human kinases = conditions: cited from earlier work
DNA CpG methylation = test: DNA methylation levels after withdrawing individual chemicals from stage II; assay type: cell-based, human
Excerpt: as §1
To perform alignments of bisulfite-treated reads correctly, the Bismark Bisulfite Mapper pipeline was followed. […] Sequence reads were similarly transformed and mapped to prepared genomes using Bowtie2 with parameters set by Bismark. […] In this way, the number of reads were obtained that supported methylation and the number of reads covering every CpG site, non-CpG sites were not considered in later analysis.
To identify the sites showing evidence of methylation, binomial test was performed to each site on these counts to test whether the methylation counts are beyond bisulfite non-conversion events. […] Methylation level for each CpG site passed the test was defined as the fraction of reads supporting methylation out of reads that cover the site (mCpG/CpG). […] The mean CpG methylation level of each sample was calculated as the fraction of all reads supporting CpG methylation out of reads that cover CpG site (all mCpG / all CpG).

Cc1cc(NC(=O)c2cccc(NC(=O)/C=C/CN(C)C)c2)ccc1Nc1nccc(-c2cccnc2)n1 [JNKIN8]
activation of SALL4 (SALL4): required
generation of hCiPSCs (human somatic cells): greatly impaired
opened chromatin status of the genes activated at stage II ([1]; chromatin accessibility analysis): essential
acquisition of plasticity signatures ([1]; stage II): required

CC(C)(C)c1cc(C(=O)/C=C/c2ccc(C(=O)O)cc2)cc(C(C)(C)C)c1 [Ch 55, 4-[(1E)-3-[3,5-bis(1,1-Dimethylethyl)phenyl]-3-oxo-1-propenyl]benzoic acid]
affinity for CRABP [2]: low affinity

CN(C)CCOc1ccc(-c2nc(-c3ccc4c(c3)CCC4=NO)c(-c3ccncc3)[nH]2)cc1 [SB590885, 5-[2-[4-[2-(Dimethylamino)ethoxy]phenyl]-5-(4-pyridinyl)-1H-imidazol-4-yl]-2,3-dihydro-1H-inden-1-one oxime]
inhibition to other human kinases (other human kinases): no inhibition

Nc1ncn([C@@H]2O[C@H](CO)[C@@H](O)[C@H]2O)c(=O)n1 [5-Azacytidine]
development of a hypo-methylated state (DNA CpG methylation): required
generation of hCiPSCs (human somatic cells): greatly impaired
